Measurements taken from ChEMBL document CHEMBL3400024, “α-Adrenoceptor antagonistic and hypotensive properties of novel arylpiperazine derivatives of pyrrolidin-2-one” (Bioorg Med Chem, 2015).
The source made the active and inactive calls. The rule behind the calls is not given here.

What was measured:
[1] = molecular target: T1, Adrenergic receptor alpha-1 (Rattus norvegicus, UniProt P15823+P23944+P43140); assay: Displacement of [3H]prazosin from rat cerebral cortex alpha-1 adrenergic receptor by liquid scintillation counting analysis; type: tissue-based
T1 sequence (P15823 whole entry): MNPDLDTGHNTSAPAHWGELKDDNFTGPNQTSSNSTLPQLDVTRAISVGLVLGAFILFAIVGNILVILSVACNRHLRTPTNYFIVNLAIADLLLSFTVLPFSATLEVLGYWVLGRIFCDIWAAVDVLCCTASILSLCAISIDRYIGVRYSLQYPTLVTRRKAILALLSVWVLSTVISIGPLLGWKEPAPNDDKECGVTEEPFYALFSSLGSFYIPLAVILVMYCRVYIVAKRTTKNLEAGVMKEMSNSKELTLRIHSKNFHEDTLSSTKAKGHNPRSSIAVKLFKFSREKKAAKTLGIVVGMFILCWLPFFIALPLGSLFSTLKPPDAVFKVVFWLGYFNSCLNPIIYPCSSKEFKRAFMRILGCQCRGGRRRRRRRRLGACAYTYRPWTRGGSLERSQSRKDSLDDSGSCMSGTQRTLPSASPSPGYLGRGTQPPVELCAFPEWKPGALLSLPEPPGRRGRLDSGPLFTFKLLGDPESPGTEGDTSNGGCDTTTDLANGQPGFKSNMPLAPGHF
T1 sequence (P23944 whole entry): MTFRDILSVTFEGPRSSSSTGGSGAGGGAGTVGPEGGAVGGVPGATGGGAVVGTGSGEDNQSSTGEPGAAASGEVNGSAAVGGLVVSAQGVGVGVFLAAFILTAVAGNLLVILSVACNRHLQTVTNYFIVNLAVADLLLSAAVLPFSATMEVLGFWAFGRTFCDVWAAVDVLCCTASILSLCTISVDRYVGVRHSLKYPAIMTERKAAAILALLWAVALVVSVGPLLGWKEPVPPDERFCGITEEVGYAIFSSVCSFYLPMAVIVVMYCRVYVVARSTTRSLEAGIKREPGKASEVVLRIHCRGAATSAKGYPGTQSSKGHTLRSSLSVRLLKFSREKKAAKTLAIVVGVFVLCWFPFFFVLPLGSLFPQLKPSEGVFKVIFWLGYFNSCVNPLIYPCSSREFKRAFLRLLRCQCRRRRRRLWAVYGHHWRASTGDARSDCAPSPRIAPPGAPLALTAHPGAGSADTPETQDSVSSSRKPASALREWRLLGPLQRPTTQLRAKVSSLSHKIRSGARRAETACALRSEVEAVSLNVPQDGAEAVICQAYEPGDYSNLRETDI
T1 sequence (P43140 whole entry): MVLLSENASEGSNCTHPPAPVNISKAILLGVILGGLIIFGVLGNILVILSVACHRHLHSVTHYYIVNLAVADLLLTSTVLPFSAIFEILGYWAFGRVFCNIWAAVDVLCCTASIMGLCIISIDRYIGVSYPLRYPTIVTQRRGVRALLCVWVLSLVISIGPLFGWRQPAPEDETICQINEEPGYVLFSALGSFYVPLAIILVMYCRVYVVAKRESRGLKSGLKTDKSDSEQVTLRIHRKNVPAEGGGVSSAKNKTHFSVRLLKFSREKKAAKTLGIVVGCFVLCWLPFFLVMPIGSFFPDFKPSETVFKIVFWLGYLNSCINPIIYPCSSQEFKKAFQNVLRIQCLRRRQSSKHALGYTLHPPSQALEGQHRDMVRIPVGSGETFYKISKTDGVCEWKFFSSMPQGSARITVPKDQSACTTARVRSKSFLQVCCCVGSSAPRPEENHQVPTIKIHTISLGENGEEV

[2] = molecular target: T2, Adrenergic receptor alpha-2 (Rattus norvegicus, UniProt P22086+P19328+P22909); assay: Displacement of [3H]clonidine from rat cerebral cortex alpha-2 adrenergic receptor by liquid scintillation counting analysis; type: tissue-based
T2 sequence (P22086 whole entry): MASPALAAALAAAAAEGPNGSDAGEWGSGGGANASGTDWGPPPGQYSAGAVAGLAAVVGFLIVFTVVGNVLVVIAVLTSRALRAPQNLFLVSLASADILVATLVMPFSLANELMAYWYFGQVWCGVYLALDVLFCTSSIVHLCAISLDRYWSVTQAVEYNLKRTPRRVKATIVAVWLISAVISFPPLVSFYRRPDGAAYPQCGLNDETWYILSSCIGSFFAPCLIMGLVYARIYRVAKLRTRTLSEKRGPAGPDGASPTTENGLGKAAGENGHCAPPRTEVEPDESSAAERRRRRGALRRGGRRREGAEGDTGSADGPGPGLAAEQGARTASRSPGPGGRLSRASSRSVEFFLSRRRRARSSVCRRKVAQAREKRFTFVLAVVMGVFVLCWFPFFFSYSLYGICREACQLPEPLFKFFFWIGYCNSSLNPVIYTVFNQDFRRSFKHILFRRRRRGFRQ
T2 sequence (P19328 whole entry): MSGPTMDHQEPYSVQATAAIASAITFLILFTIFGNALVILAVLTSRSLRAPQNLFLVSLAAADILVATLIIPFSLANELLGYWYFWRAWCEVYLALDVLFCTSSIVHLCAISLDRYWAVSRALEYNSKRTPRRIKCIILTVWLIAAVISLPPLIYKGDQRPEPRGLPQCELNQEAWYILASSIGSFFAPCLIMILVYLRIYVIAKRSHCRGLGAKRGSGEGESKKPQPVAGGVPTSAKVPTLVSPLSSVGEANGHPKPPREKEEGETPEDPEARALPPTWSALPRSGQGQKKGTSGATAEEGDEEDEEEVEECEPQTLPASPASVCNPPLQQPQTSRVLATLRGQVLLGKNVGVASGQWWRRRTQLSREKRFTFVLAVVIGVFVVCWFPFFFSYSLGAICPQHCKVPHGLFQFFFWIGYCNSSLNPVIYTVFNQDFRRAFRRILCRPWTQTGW
T2 sequence (P22909 whole entry): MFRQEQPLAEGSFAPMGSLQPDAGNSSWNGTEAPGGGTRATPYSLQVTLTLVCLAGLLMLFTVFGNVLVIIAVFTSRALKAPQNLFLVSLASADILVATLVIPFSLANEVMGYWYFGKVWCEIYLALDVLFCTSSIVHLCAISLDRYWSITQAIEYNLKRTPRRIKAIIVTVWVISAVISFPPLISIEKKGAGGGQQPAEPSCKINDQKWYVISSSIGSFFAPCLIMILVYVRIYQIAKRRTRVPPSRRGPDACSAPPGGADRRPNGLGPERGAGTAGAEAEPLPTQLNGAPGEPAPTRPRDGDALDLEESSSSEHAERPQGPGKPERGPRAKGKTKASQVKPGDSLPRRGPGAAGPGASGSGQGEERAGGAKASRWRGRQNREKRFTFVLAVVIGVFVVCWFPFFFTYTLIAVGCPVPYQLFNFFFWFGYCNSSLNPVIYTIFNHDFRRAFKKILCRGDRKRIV

[3] = molecular target: T3, Alpha-1B adrenergic receptor (Homo sapiens, UniProt P35368); assay: Antagonist activity at alpha-1B adrenergic receptor (unknown origin) incubated for 30 mins prior to agonist addition measured after 5 hrs by CCF4-AM staining-based cellular assay
T3 sequence (P35368 whole entry): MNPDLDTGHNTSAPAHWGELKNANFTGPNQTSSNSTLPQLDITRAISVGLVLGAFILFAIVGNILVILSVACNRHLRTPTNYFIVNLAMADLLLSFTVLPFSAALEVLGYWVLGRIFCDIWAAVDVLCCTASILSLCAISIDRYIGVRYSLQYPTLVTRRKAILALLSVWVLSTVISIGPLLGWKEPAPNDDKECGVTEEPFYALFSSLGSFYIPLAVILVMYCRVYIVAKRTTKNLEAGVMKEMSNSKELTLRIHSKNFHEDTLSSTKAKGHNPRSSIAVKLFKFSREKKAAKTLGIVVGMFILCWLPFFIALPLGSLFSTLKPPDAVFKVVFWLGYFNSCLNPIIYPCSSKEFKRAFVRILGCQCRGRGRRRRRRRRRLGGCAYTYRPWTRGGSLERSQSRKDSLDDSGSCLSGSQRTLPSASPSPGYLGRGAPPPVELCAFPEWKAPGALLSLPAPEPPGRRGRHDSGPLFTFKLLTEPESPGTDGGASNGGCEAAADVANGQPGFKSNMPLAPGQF

[4] = molecular target: T4, Alpha-1A adrenergic receptor (Homo sapiens, UniProt P35348); assay: Antagonist activity at alpha-1A adrenergic receptor (unknown origin) incubated for 30 mins prior to agonist addition measured after 5 hrs by CCF4-AM staining-based cellular assay
T4 sequence (P35348 whole entry): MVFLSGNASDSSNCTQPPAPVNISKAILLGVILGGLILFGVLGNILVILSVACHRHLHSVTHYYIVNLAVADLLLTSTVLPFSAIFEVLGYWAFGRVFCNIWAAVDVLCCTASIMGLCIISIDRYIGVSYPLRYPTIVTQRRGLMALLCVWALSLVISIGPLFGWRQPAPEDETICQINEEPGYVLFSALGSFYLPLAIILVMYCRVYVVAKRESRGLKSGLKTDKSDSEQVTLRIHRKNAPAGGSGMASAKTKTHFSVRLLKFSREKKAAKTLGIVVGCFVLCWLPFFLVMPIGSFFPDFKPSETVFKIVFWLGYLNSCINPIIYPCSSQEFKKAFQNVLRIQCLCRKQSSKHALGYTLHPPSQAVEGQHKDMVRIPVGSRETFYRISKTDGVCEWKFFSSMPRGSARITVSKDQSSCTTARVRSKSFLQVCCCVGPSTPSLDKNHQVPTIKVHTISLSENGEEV

[5] = molecular target: T4, Alpha-1A adrenergic receptor; assay: Agonist activity at alpha-1A adrenergic receptor (unknown origin) after 5 hrs by CCF4-AM staining-based cellular assay
Rattus norvegicus [6] = assay: Hypotensive activity in normotensive anesthetized Wistar rat assessed as reduction of diastolic pressure at 1 to 5 mg/kg, iv measured up to 60 mins; type: functional, organism-based
Rattus norvegicus [7] = assay: Hypotensive activity in normotensive anesthetized Wistar rat assessed as reduction of systolic pressure at 1 to 5 mg/kg, iv measured up to 60 mins; type: functional, organism-based
[8] = molecular target: T5, Adrenergic receptor alpha-1 (Homo sapiens, UniProt P35348+P25100+P35368); assay: Binding affinity to alpha-1 adrenergic receptor (unknown origin)
T5 sequence (P35348 whole entry): T4 sequence (P35348 whole entry)
T5 sequence (P25100 whole entry): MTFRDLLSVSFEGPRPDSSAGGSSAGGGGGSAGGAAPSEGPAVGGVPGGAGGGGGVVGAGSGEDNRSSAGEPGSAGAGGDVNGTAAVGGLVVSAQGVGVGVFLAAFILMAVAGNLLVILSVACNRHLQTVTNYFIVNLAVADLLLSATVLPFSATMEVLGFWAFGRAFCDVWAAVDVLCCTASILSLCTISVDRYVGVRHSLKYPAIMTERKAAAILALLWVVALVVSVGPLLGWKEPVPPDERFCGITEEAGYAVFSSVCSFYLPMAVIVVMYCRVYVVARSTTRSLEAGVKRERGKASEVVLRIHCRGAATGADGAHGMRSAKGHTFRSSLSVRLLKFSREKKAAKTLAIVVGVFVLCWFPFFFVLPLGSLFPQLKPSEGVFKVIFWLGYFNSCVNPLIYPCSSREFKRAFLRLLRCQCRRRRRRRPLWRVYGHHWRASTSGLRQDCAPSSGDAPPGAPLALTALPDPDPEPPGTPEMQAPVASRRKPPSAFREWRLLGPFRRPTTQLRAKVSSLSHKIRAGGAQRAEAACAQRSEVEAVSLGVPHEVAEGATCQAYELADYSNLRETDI
T5 sequence (P35368 whole entry): T3 sequence (P35368 whole entry)

| pKi [1] | pKi [2] | EC50 [3] [µM] | EC50 ([4]; read-out: EC50) [µM] | pKi [8] | SMILES | EC50 [5] | EC50 [4] | Activity (Rattus norvegicus [6]) | Activity (Rattus norvegicus [7]) |
| --- | --- | --- | --- | --- | --- | --- | --- | --- | --- |
| < 5 | < 5 |  |  |  | COc1ccc(N2CCN(CCCCN3CCCC3=O)CC2)cc1.Cl |  |  |  |  |
| 7.07 | 5.92 | 0.131 | 0.329 |  | Cl.O=C1CCCN1CCCCN1CCN(C(c2ccc(F)cc2)c2ccc(F)cc2)CC1 |  |  |  |  |
| 6.65 | < 5 | 0.289 |  |  | Cl.O=C1CCCN1CCCCN1CCN(C(c2ccccc2)c2ccccc2)CC1 | Not Active | Not Active |  |  |
| 6.44 | < 5 | 0.165 |  |  | Cl.O=C1CCCN1CCCCN1CCN(c2ccccc2O)CC1 | Not Active | Not Active |  |  |
|  |  |  |  | 7.05 | Cc1ccccc1N1CCN(CCN2CCCC2=O)CC1 |  |  |  |  |
| 6.43 | 6.01 |  |  |  | Cl.O=C1CCCN1CCN1CCN(C(c2ccc(F)cc2)c2ccc(F)cc2)CC1 |  |  |  |  |
| 7.3 | 6.01 | 0.00253 | 0.138 |  | Cl.O=C1CCCN1CCCCN1CCN(c2ccccc2Cl)CC1 |  |  | Active | Active |
| < 5 | < 5 |  |  |  | COc1ccccc1N1CCN(CCN2CCCC2=O)CC1.Cl |  |  |  |  |
| 5.92 | < 5 |  |  |  | COc1ccc(N2CCN(CCN3CCCC3=O)CC2)cc1.Cl |  |  |  |  |
|  |  |  |  | 7.13 | O=C1CCCN1CCN1CCN(c2ccccc2Cl)CC1 |  |  |  |  |
| 6.09 | 5.92 |  |  |  | Cc1ccccc1N1CCN(CCN2CCCC2=O)CC1.Cl |  |  |  |  |
| 5.51 | < 5 |  |  |  | Cl.O=C1CCCN1CCN1CCN(c2ccc(Cl)cc2)CC1 |  |  |  |  |

| SMILES | pKi [1] | pKi [2] | EC50 [3] [µM] | EC50 ([4]; read-out: EC50) [µM] | pKi [8] | EC50 [5] | EC50 [4] | Activity (Rattus norvegicus [6]) | Activity (Rattus norvegicus [7]) |
| --- | --- | --- | --- | --- | --- | --- | --- | --- | --- |
| Cc1ccccc1N1CCN(CCCCN2CCCC2=O)CC1.Cl | 7.14 | 6.05 | 0.0035 |  |  | Not Active | Not Active | Active | Active |
| Cl.O=C1CCCN1CCCCN1CCN(c2ccc(F)cc2F)CC1 | 6.77 | < 5 | 0.0469 |  |  | Not Active | Not Active |  |  |
